PubChem BioAssay (NCI)
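The concentration for 50% growth inhibition is given as GI50. TGI: total growth inhibition.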

Assays:
Experiment in all cases: growth of human tumour cells (NCI), 384-well format
HCT-116 colon = system: HCT-116 colon
RXF 393 renal = system: RXF 393 renal
OVCAR-8 ovarian = system: OVCAR-8 ovarian
DU-145 prostate = system: DU-145 prostate
HOP-92 NSCLC = system: HOP-92 NSCLC
NCI-H226 lung = system: NCI-H226 lung
SF-295 CNS = system: SF-295 CNS
SN12C renal = system: SN12C renal
UACC-62 melanoma = system: UACC-62 melanoma
A549 NSCLC = system: A549 NSCLC
TK-10 renal = system: TK-10 renal
HL-60(TB) leukemia = system: HL-60(TB) leukemia
SK-MEL-2 melanoma = system: SK-MEL-2 melanoma
T-47D breast = system: T-47D breast
PC-3 prostate = system: PC-3 prostate
NCI-H522 lung = system: NCI-H522 lung
MDA-MB-468 breast = system: MDA-MB-468 breast
SK-MEL-28 melanoma = system: SK-MEL-28 melanoma
LOX IMVI melanoma = system: LOX IMVI melanoma
HT29 colon = system: HT29 colon
MOLT-4 leukemia = system: MOLT-4 leukemia
HOP-62 NSCLC = system: HOP-62 NSCLC
OVCAR-3 ovarian = system: OVCAR-3 ovarian
SF-268 CNS = system: SF-268 CNS
EKVX NSCLC = system: EKVX NSCLC
MALME-3M melanoma = system: MALME-3M melanoma
HCT-15 colon = system: HCT-15 colon
MDA-MB-231 breast = system: MDA-MB-231 breast
HS 578T breast = system: HS 578T breast
CAKI-1 renal = system: CAKI-1 renal
IGROV1 ovarian = system: IGROV1 ovarian
MDA-MB-435 melanoma = system: MDA-MB-435 melanoma
MCF7 breast = system: MCF7 breast
NCI/ADR-RES ovarian = system: NCI/ADR-RES ovarian
OVCAR-4 ovarian = system: OVCAR-4 ovarian
NCI-H322M lung = system: NCI-H322M lung
BT-549 breast = system: BT-549 breast
OVCAR-5 ovarian = system: OVCAR-5 ovarian
NCI-H460 NSCLC = system: NCI-H460 NSCLC
NCI-H23 lung = system: NCI-H23 lung
CCRF-CEM leukemia = system: CCRF-CEM leukemia
786-0 renal = system: 786-0 renal
SNB-19 CNS = system: SNB-19 CNS
A498 renal = system: A498 renal
KM12 colon = system: KM12 colon
M14 melanoma = system: M14 melanoma
SF-539 CNS = system: SF-539 CNS
RPMI-8226 leukemia = system: RPMI-8226 leukemia
COLO 205 colon = system: COLO 205 colon
SNB-75 CNS = system: SNB-75 CNS
SK-OV-3 ovarian = system: SK-OV-3 ovarian
UO-31 renal = system: UO-31 renal
HCC-2998 colon = system: HCC-2998 colon
ACHN renal = system: ACHN renal
K-562 leukemia = system: K-562 leukemia
UACC-257 melanoma = system: UACC-257 melanoma
SW-620 colon = system: SW-620 colon
U251 glioblastoma = system: U251 glioblastoma
SK-MEL-5 melanoma = system: SK-MEL-5 melanoma

## C[C@]12O[C@H](C[C@]1(O)CO)n1c3ccccc3c3c4c(c5c6ccccc6n2c5c31)CNC4=O
HCT-116 colon
  GI50: < 10 nM
  TGI: 10.3 µM
RXF 393 renal
  GI50: < 10 nM
  TGI: 49.6 nM
OVCAR-8 ovarian
  GI50: 96.5 nM
  TGI: 275 nM
DU-145 prostate
  GI50: < 10 nM
  TGI: 1620 nM
HOP-92 NSCLC
  GI50: 70.6 nM
  TGI: 720 nM
NCI-H226 lung
  GI50: 57.4 nM
  TGI: 734 nM
SF-295 CNS
  GI50: 44.7 nM
  TGI: 1260 nM
SN12C renal
  GI50: < 10 nM
  TGI: 458 nM
UACC-62 melanoma
  GI50: < 10 nM
  TGI: 610 nM
A549 NSCLC
  GI50: 76.3 nM
  TGI: 1590 nM
TK-10 renal
  GI50: < 10 nM
  TGI: 598 nM
HL-60(TB) leukemia
  GI50: < 10 nM
  TGI: 51.6 nM
SK-MEL-2 melanoma
  GI50: < 10 nM
  TGI: 84.7 nM
T-47D breast
  GI50: 456 nM
  TGI: 4.26 µM
PC-3 prostate
  GI50: 100 nM
  TGI: 1860 nM
NCI-H522 lung
  GI50: < 10 nM
  TGI: 111 nM
MDA-MB-468 breast
  GI50: 21.5 nM
  TGI: 290 nM
SK-MEL-28 melanoma
  GI50: 35.8 nM
  TGI: 453 nM
LOX IMVI melanoma
  GI50: 25.3 nM
  TGI: 186 nM
HT29 colon
  GI50: 212 nM
  TGI: 10.5 µM
MOLT-4 leukemia
  GI50: < 10 nM
  TGI: 12.8 nM
HOP-62 NSCLC
  GI50: 44.5 nM
  TGI: 646 nM
OVCAR-3 ovarian
  GI50: 157 nM
  TGI: 1280 nM
SF-268 CNS
  GI50: 44.2 nM
  TGI: 1400 nM
EKVX NSCLC
  GI50: 33.6 nM
  TGI: 471 nM
MALME-3M melanoma
  GI50: < 10 nM
  TGI: 79.5 nM
HCT-15 colon
  GI50: < 10 nM
  TGI: 1300 nM
MDA-MB-231 breast
  GI50: 60.9 nM
  TGI: 1540 nM
HS 578T breast
  GI50: 33.9 nM
  TGI: 769 nM
CAKI-1 renal
  GI50: < 10 nM
  TGI: 228 nM
IGROV1 ovarian
  GI50: < 10 nM
  TGI: 1150 nM
MDA-MB-435 melanoma
  GI50: < 10 nM
  TGI: 1110 nM
MCF7 breast
  GI50: 64.2 nM
  TGI: 1330 nM
NCI/ADR-RES ovarian
  GI50: 1200 nM
  TGI: 2460 nM
OVCAR-4 ovarian
  GI50: 1380 nM
  TGI: 3.2 µM
NCI-H322M lung
  GI50: 584 nM
  TGI: 2140 nM
BT-549 breast
  GI50: 12.3 nM
  TGI: 213 nM
OVCAR-5 ovarian
  GI50: 122 nM
  TGI: 1900 nM
NCI-H460 NSCLC
  GI50: 34.8 nM
  TGI: 1090 nM
NCI-H23 lung
  GI50: 24.1 nM
  TGI: 311 nM
CCRF-CEM leukemia
  GI50: 11.3 nM
  TGI: 39.7 nM
786-0 renal
  GI50: 31.3 nM
  TGI: 515 nM
SNB-19 CNS
  GI50: 341 nM
  TGI: 1850 nM
A498 renal
  GI50: < 10 nM
  TGI: 1370 nM
KM12 colon
  GI50: < 10 nM
  TGI: 212 nM
M14 melanoma
  GI50: < 10 nM
  TGI: 155 nM
SF-539 CNS
  GI50: 24.2 nM
  TGI: 276 nM
RPMI-8226 leukemia
  GI50: 11.6 nM
  TGI: 39.8 nM
COLO 205 colon
  GI50: 20.2 nM
  TGI: 103 nM
SNB-75 CNS
  GI50: 143 nM
  TGI: 1160 nM
SK-OV-3 ovarian
  GI50: < 10 nM
  TGI: 627 nM
UO-31 renal
  GI50: 14.9 nM
  TGI: 1160 nM
HCC-2998 colon
  GI50: 153 nM
  TGI: 773 nM
ACHN renal
  GI50: < 10 nM
  TGI: 1680 nM
K-562 leukemia
  GI50: 60.1 nM
  TGI: 1610 nM
UACC-257 melanoma
  GI50: 395 nM
  TGI: 1680 nM
SW-620 colon
  GI50: 41.6 nM
  TGI: 1450 nM
U251 glioblastoma
  GI50: 290 nM
  TGI: 1880 nM
SK-MEL-5 melanoma
  GI50: < 10 nM
  TGI: 145 nM
